Results from US11850235B2, “Preventative effect of mebendazole against malignancies in neurofibromatosis” (priority 2021, dated 2023).

Experiments:
[1] = system: pERK; experiment: Immunohistochemistry of pERK1/2 and ERK1/2 in tumors of NPcis mice; assay type: in vivo; conditions: sarcomas of NPcis mice, 195 mg/kg diet
Procedure: Mouse tumors were first fixed by formalin and embedded in paraffin. For hematoxylin & eosin (H&E) staining, the section was de-paraffinized and stained by the standard hematoxylin and eosin procedure to visualize tissue structures. For immunostaining, rabbit anti-Erk1/2 and anti-pErk1/2 antibodies were used. Sections were de-paraffinized using a standard procedure and blocked using 1.9% H2O2 in methanol at room temperature for 10 min. Sections were heated at 100° C. for 20 min in the antigen retrieval citrate solution and blocked by the serum-free protein blocker for 5 min at room temperature. After incubation with the rabbit anti-Erk1/2 or anti-pErk1/2 antibody diluted at 1:50 overnight at 4° C., biotin-conjugated anti-rabbit IgG was applied for 20 min at room temperature, followed by washing and incubation with streptavidin peroxidase for 15 min at room temperature. Antibody binding was visualized by the 3,3′-Diaminobenzidine (DAB) chromogen system. Subsequently, sections were counterstained by hematoxylin. Immunohistochemistry (IHC) quantification of representative tumor tissue sections was carried out with open source software using JPEG files. Mean optical density (OD) was calculated as the log average (maximal intensity/mean intensity) after image processing with color deconvolution and background subtraction. […]

[2] = Dose-dependent toxicity of medicated feed in NPcis mice; assay type: in vivo
Procedure: (§1) At day 60 after birth, heterozygous mice were started on the medicated feed or water. The mouse diet consisting of 45 kcal % fat containing soybean oil and lard for fat was used as the control feed. […] Sulindac was added to drinking water at 160 ppm (0.5 mg/day) in 4 mM sodium phosphate buffer as previously described. Animals were palpated weekly for tumors and survival and cause of death were recorded.
This range was calculated based on previously established maximal dose of 50 mg/kg MBZ via oral gavage and the estimated daily food intake of a mouse. Mice were weighed weekly and examined for signs of toxicity over 4 weeks.

[3] = system: NF90-8 cells; experiment: Cell proliferation assay (Cell Counting Kit-8), NF90-8; assay type: cell-based; conditions: Homo sapiens, 72 h
Procedure: (§2) The human NF1-associated MPNST cell line NF90.8 was privately provided and sNF96.2 was purchased from the American Type Culture Collection. […] These cell lines were not authenticated. All cells were tested and found free of mycoplasma contamination. A cell proliferation assay was performed using Cell Counting Kit-8. Cells in 100 μL media in a 96-well plate were incubated with 10 μL of WST-8, a tetrazolium salt, at 37° C. in a tissue culture incubator. Absorbance was measured at 450 nm. Half maximal inhibitory concentrations (IC50s) were determined by incubating cells at a range of concentrations for 72 h and were calculated using the log (inhibitor) vs. response function and non-linear fit. Human MPNST cells NF90-8 and sNF96.2, both derived from NF1 patients, were treated with various MBZ concentrations for 72 h. […] Because NF1-associated tumors are mainly driven by Ras hyperactivation, MBZ's ability to inhibit Ras activity in the NF90-8 cell line was studied by exposing NF90-8 cells to different concentrations of MBZ (0.2 and 1 μM) for 24 h. […] This confirmed the Ras inhibitory effect of MBZ in vitro.

[4] = system: NPcis (cis Nf1+/-; Tp53+/-) mice; experiment: Chemoprevention in NPcis mice (tumor onset, survival, cause of death); assay type: in vivo; conditions: for effect on survival of non-solid malignancy-related and unknown causes of death / effect on overall median survival vs controls / overall median survival: NPcis mice; for effect on survival of non-solid malignancy-related and unknown causes of death: male and female; for effect on overall median survival vs controls: treatment from day 60; for overall median survival: MBZ 195 mg/kg feed, CXB 1000 ppm feed, SUL 160 ppm drinking water; for increase in median survival: 195 mg/kg feed
Source text: NPcis (cis Nf1+/−; Tp53+/−) mice in C57BL/6 background (B6;129S2-Trp53tm1Tyj Nf1tm1Tyj/J) were bred by pairing male heterozygous NPcis mice with the female wildtype mice to better generate MPNST animals. Since homozygous Nf1/Tp53 KO mice are embryonically lethal, only heterozygous and wildtype pups were born. Like NF1 patients, NPcis mice spontaneously develop predominantly soft tissue sarcomas including MPNSTs (genetically engineered murine (GEM) PNSTs) and malignant Triton tumors, as well as rhabdomyosarcomas and astrocytomas that severely limit their life expectancy to ˜5 months. The addition of heterozygous Tp53 knock-out (KO) accelerates the cancer development, which mimics the secondary mutations required for the transformation to malignancies such as MPNST, where the second copy of Nf1 is also lost due to the loss of heterozygosity (LOH).
as §1
In order to investigate the tumor-preventative effects of MBZ, continuous oral administration of MBZ via 195 mg/kg feed was initiated at 60 days after birth, before the formation of any malignancies. Mice were palpated weekly for the presence of any tumors. For the purpose of this study, ‘Solid Malignancies’ were defined as any type of sarcoma and astrocytoma, in addition to neuroblastomas and carcinomas, while ‘Others’ included non-solid malignancies such as lymphomas, leukemias and unknown causes of death.

[5] = system: GTP-bound Ras in NF90-8 cells; experiment: Ras activity assay (Active Ras Detection Kit, GST-Raf1-RBD pull-down); assay type: cell-based, human; conditions: 0.2 and 1 μM, 24 h
Procedure: A Ras activity assay was performed according to the manufacturer's instructions for the Active Ras Detection Kit. Briefly, cells were lysed with the Lysis/Binding/Wash buffer and pelleted, then the supernatant was used as the cell lysate. In the positive control, 5 μL of 10 mM GTPγS was added to 500 μL of lysates and incubated at 30° C. for 15 min. Cell lysates were incubated with glutathione resin, together with the purified GST-Raf1-RBD protein at 4° C. for 1 h in a spin cup. The resin was washed, and the bound proteins were eluted by incubating with dithiothreitol (DTT)-containing sample buffer at RT for 2 min. Eluted samples were heated and analyzed by anti-Ras Western blotting. Human MPNST cells NF90-8 and sNF96.2, both derived from NF1 patients, were treated with various MBZ concentrations for 72 h. […] Because NF1-associated tumors are mainly driven by Ras hyperactivation, MBZ's ability to inhibit Ras activity in the NF90-8 cell line was studied by exposing NF90-8 cells to different concentrations of MBZ (0.2 and 1 μM) for 24 h. […] This confirmed the Ras inhibitory effect of MBZ in vitro.

[6] = system: sNF96.2 cells; experiment: Cell proliferation assay (Cell Counting Kit-8), sNF96.2; assay type: cell-based; conditions: Homo sapiens, 72 h
Procedure: as §2

[7] = 195 mg/kg feed from day 60, solid malignancies, male and female combined

SMILES	ERK staining, mean intensity [1]	pERK DAB staining, mean optical density (OD) ([1]; three tumor samples)	tolerability of long-term daily continuous administration ([2]; 195 mg/kg feed, started 60 days after birth, male and female)	signs of toxicity ([2]; 250 and 215 mg/kg diets, over 4 weeks)	weight loss ([2]; 250 and 215 mg/kg diets, over 4 weeks, male and female NPcis mice)	IC50 [3] [nM]	delay of tumor occurrence and median mortality vs control [4, 7] [days]	tumor occurrence and median mortality [4, 7] [days]	effect on survival of non-solid malignancy-related and unknown causes of death [4]	effect on overall median survival vs controls [4]	overall median survival [4] [days]	increase in median survival ([4]; female mice, solid malignancies) [days]	increase in median survival ([4]; male mice, solid malignancies) [days]	reduction in solid cancer-related causes of death ([4]; vs control NPcis mice) [%]	activated form of GTP-bound Ras [5]	IC50 [6] [nM]
COC(=O)Nc1nc2ccc(C(=O)c3ccccc3)cc2[nH]1 [MBZ, mebendazole]	0.07	0.02	well tolerated	excessive toxicity	10-15%	180	32	192	did not affect	significantly increased	199	14	34.5	~25	reduced in MBZ-treated NF90-8 cells in a concentration-dependent manner	320
CC1=C(CC(=O)O)c2cc(F)ccc2/C1=C\c1ccc([S+](C)[O-])cc1 (stereo not shown) [SUL, sulindac]	–	–	–	–	–	–	–	–	neither SUL nor CXB had an effect	failed to demonstrate any effect	171.5	–	–	–	–	–
